# Test results as given in PubChem BioAssay (NCI).
#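 How tested: cells in 96-well plates exposed to compound for 48 hours at five concentrations. GI50 is the concentration that inhibits growth by half. Definition used: TGI = concentration required for complete inhibition of growth.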
# Key:
# Experiment in all cases: NCI tumour cell line growth inhibition, 48 h
# 786-0 renal = system: 786-0 renal
# HCC-2998 colon = system: HCC-2998 colon
# HOP-92 NSCLC = system: HOP-92 NSCLC
# MALME-3M melanoma = system: MALME-3M melanoma
# OVCAR-3 ovarian = system: OVCAR-3 ovarian
# OVCAR-4 ovarian = system: OVCAR-4 ovarian
# OVCAR-8 ovarian = system: OVCAR-8 ovarian
# SF-539 CNS = system: SF-539 CNS
# TK-10 renal = system: TK-10 renal
# K-562 leukemia = system: K-562 leukemia
Structure (SMILES),TGI (786-0 renal),TGI (HCC-2998 colon),TGI (HOP-92 NSCLC),TGI (MALME-3M melanoma),TGI (OVCAR-3 ovarian),TGI (OVCAR-4 ovarian),TGI (OVCAR-8 ovarian),TGI (SF-539 CNS),TGI (TK-10 renal),TGI (K-562 leukemia),GI50 (HCC-2998 colon),GI50 (HOP-92 NSCLC),GI50 (K-562 leukemia),GI50 (MALME-3M melanoma),GI50 (OVCAR-3 ovarian),GI50 (OVCAR-4 ovarian),GI50 (OVCAR-8 ovarian),GI50 (SF-539 CNS),GI50 (TK-10 renal)
O=C1c2cccnc2S(=O)(=O)N1c1ccc([N+](=O)[O-])cc1,> 100 µM,> 100 µM,> 100 µM,> 100 µM,> 100 µM,> 100 µM,> 100 µM,> 100 µM,> 100 µM,,,,,,,,,,
CNC(=S)NNc1ncnc2c1c(-c1ccc(Cl)cc1)cn2-c1ccc(C)cc1,24.2 µM,,30.8 µM,33 µM,24 µM,37.6 µM,31.5 µM,29.8 µM,35 µM,> 100 µM,,,,,,,,,
Nc1c(S(N)(=O)=O)cc(S(N)(=O)=O)cc1S(N)(=O)=O,> 100 µM,> 100 µM,> 100 µM,> 100 µM,> 100 µM,> 100 µM,> 100 µM,,> 100 µM,> 100 µM,,,,,,,,,
CCCO/N=[N+](\[O-])N(CC)CC,,> 100 µM,> 100 µM,,> 100 µM,,> 100 µM,> 100 µM,> 100 µM,> 100 µM,,,,,,,,,
Cn1c2c(c3ccccc31)CCN1C(=O)C34CCCC3CC21S4 (centres undefined),> 100 µM,,> 100 µM,> 100 µM,> 100 µM,> 100 µM,> 100 µM,> 100 µM,> 100 µM,> 100 µM,,,,,,,,,
Oc1c(OCc2nnc(CCCCCCCCc3nnc(COc4ccc5ccccc5c4O)o3)o2)ccc2ccccc12,50.8 µM,> 100 µM,> 100 µM,> 100 µM,,> 100 µM,,,> 100 µM,> 100 µM,,,,,,,,,
CCN(CCCCCCCCCCN1CC(=O)N(CCCCCCCCCCN(CC)Cc2ccccc2OC)CC1=O)Cc1ccccc1OC,,2.9 µM,2.34 µM,3.47 µM,2.48 µM,6.59 µM,3.29 µM,3.33 µM,,12 µM,1.46 µM,0.359 µM,0.388 µM,1.64 µM,1.18 µM,1.77 µM,1.47 µM,1.58 µM,
Cc1cn(CCCCCOC(=O)NC(CCCNC(N)=O)C(=O)O)c(=O)[nH]c1=O (centres undefined),> 100 µM,> 100 µM,> 100 µM,,> 100 µM,> 100 µM,> 100 µM,> 100 µM,> 100 µM,> 100 µM,,,,,,,,,
CCCCCCCCCCCCOCCOCCOCCOCCOCCOCC(=O)NC(Cc1ccccc1)C(=O)Oc1ccc([N+](=O)[O-])cc1 (centres undefined),> 100 µM,,> 100 µM,> 100 µM,51.9 µM,> 100 µM,> 100 µM,> 100 µM,> 100 µM,> 100 µM,,,,,,,,,
COc1ccc(OC)c(NC(=O)C(=O)C(C(=O)c2ccccc2F)C2OC(=O)c3ccccc32)c1 (centres undefined),,> 100 µM,> 100 µM,,,> 100 µM,> 100 µM,82.2 µM,> 100 µM,> 100 µM,,,,,,,,,
C[N+]1(CCN=C=NC2CCCCC2)CCOCC1,> 100 µM,,> 100 µM,> 100 µM,> 100 µM,> 100 µM,> 100 µM,> 100 µM,> 100 µM,> 100 µM,,,,,,,,,
CC(C)(C)c1cc(/C=C2/NC(=O)NC2=O)cc(C(C)(C)C)c1O,33.3 µM,,27.9 µM,34.6 µM,27.9 µM,26 µM,38.5 µM,31.6 µM,30.2 µM,33.1 µM,,,,,,,,,
CC(=O)C1(O)CCC2(O)C3(O)CC=C4CC(O)CCC4(C)C3CC(OC(=O)c3ccc(O)cc3)C12C (centres undefined),> 100 µM,> 100 µM,> 100 µM,,> 100 µM,> 100 µM,> 100 µM,> 100 µM,> 100 µM,> 100 µM,,,,,,,,,
CCOC(=O)Cn1nnc2cc(Nc3c(C)[n+]([O-])c4cc(F)c(OCC)cc4[n+]3[O-])ccc21,> 100 µM,,49.5 µM,,> 100 µM,> 100 µM,> 100 µM,> 100 µM,64.4 µM,> 100 µM,,,,,,,,,
CCC(=O)Nc1ccc(NS(=O)(=O)c2ccc(Cl)cc2)cc1,> 100 µM,> 100 µM,> 100 µM,> 100 µM,> 100 µM,> 100 µM,> 100 µM,> 100 µM,,> 100 µM,,,,,,,,,
Cc1cnc2[nH]c(-c3cccc(F)c3)cc(=O)c2c1,> 83.6 µM,,> 100 µM,> 100 µM,0.0373 µM,> 100 µM,1.5 µM,0.263 µM,,> 100 µM,,,,,,,,,
CN(C)CCNc1c([N+](=O)[O-])sc2ccc(Cl)cc12,49.1 µM,> 100 µM,,> 100 µM,> 100 µM,> 100 µM,> 100 µM,46.9 µM,> 100 µM,> 100 µM,,,,,,,,,
CCN1CCN(Cc2ccc(NC(=O)Nc3ccc(-n4ccc5c(NC(=O)c6ccccc6)nccc54)cc3)cc2C(F)(F)F)CC1,,2.54 µM,59.6 µM,,2.63 µM,,4.92 µM,,> 100 µM,1.52 µM,1.23 µM,13.3 µM,0.0653 µM,,1.32 µM,,0.968 µM,,1.5 µM
CC1CCc2sc3nc4n(c(=O)c3c2C1)CC(C)S4 (centres undefined),65.6 µM,42 µM,64.9 µM,65.8 µM,36.7 µM,> 100 µM,> 100 µM,,98.7 µM,> 100 µM,,,,,,,,,
N#C/C(=C\c1cccc(Br)c1)c1nc2ccccc2c(=O)[nH]1,> 100 µM,> 100 µM,53.2 µM,> 100 µM,,> 100 µM,> 100 µM,> 100 µM,> 100 µM,> 100 µM,,,,,,,,,
COCC#C[C@@]1(O)CCCCC1CC(OC)OC (some centres undefined),> 100 µM,> 100 µM,> 100 µM,> 100 µM,,> 100 µM,> 100 µM,,> 100 µM,> 100 µM,,,,,,,,,
O=C1N/N=C\c2ccc(cc2)OCc2cccc(n2)COc2ccc(cc2)/C=N\NC1=O,> 25 µM,,> 25 µM,> 25 µM,> 25 µM,> 25 µM,> 25 µM,> 25 µM,> 25 µM,> 25 µM,,,,,,,,,
